{"source": "patent US8343539B2", "about": "“Compounds that bind α5β1 integrin and methods of use” (Regents of the University of Minnesota, priority 2006, dated 2013)", "key": {"integrin α5β1": {"molecular_target": "T1, integrin α5β1 (Homo sapiens, UniProt P05556+P08648)", "T1 construct": "endogenous in cells; host or cells: HUVEC (human umbilical vein endothelial cells)", "T1 sequence (P08648 42-894 limits assumed)": "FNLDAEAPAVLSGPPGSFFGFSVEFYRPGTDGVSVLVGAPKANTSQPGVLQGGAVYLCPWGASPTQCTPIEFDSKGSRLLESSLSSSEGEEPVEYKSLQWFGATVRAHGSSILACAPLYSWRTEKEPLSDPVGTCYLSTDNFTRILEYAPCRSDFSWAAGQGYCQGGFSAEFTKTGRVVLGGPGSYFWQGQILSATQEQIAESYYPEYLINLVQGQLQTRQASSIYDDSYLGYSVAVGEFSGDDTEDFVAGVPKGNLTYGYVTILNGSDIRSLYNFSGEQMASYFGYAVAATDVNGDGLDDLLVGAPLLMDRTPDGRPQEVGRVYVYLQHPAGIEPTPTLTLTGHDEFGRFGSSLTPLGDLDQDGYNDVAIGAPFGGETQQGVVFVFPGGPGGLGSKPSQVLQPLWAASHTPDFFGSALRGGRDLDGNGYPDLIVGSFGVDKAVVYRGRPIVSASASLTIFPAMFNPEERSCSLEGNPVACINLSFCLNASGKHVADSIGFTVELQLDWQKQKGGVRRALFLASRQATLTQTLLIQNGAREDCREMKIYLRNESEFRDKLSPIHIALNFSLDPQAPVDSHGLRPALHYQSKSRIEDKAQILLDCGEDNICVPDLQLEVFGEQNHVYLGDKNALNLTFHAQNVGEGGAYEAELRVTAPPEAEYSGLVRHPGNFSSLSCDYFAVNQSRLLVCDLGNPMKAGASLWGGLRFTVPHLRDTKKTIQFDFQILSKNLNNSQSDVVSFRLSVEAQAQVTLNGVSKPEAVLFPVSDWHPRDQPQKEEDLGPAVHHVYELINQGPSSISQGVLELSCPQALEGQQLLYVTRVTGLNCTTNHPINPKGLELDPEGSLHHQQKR", "T1 sequence (P08648 895-1049 partner limits assumed)": "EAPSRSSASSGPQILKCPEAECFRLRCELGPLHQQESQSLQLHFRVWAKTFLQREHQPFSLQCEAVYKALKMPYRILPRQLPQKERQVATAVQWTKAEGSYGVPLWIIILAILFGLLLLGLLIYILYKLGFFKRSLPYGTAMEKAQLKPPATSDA", "T1 sequence (P05556 21-798)": "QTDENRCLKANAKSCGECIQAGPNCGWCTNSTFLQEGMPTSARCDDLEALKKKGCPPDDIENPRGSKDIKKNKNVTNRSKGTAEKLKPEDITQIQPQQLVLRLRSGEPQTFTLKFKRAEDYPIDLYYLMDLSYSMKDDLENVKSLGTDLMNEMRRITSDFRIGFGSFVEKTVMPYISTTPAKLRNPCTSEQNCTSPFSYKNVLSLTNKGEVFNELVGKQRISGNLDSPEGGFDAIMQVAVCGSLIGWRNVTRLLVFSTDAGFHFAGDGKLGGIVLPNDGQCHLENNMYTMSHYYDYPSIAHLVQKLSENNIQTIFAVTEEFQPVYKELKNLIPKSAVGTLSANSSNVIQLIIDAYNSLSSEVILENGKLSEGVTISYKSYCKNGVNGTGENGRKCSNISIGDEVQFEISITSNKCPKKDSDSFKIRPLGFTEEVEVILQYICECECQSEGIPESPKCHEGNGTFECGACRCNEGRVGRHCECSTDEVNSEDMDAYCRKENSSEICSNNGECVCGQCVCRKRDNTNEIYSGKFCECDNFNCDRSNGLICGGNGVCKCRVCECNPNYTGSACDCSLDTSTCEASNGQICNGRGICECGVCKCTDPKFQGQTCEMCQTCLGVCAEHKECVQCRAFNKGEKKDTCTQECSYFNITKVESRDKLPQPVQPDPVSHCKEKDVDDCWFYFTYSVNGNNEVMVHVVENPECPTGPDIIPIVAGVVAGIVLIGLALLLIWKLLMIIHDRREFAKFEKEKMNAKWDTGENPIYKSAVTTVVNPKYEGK", "assay": "Adhesion blocking with anti-integrin α5β1 antibody (JBS5)", "type": "cell-based", "conditions": "1 hour", "method": "Adhesion blocking experiments: Blocking experiments were done using mouse anti-human integrin […] (P1D6), β1 (P5D2), α5β1 (JBS5), and αvβ3 (LM609) monoclonal antibodies (Chemicon Int.). All surfaces were transferred to 24- or 12-well plates and pre-incubated in 0.1% BSA media as described above. HUVECs were prepared and counted as described in the cell adhesion protocol. Cells were blocked by mixing the cell suspension with the appropriate antibody in 0.1% BSA media, and incubating for 30 minutes at 37° C., 5% CO2 with constant agitation. Blocked cells were then released onto LB and FN surfaces and allowed to adhere for 1 hour at 37° C., 5% CO2. For all blocking experiments, cells were seeded at 249 cells/mm^2 (lower seeding density was used here to reduce the amount of antibodies needed to block cell adhesion) and a final antibody concentration in each well was 20 μg/ml. Following incubation, surfaces were washed, and adhered cells were quantified as described in the cell adhesion protocol."}, "HUVECs [1]": {"system": "HUVECs", "assay": "HUVEC spreading on substrates (cell area)", "type": "cell-based, human", "method": "Cell spreading and fibronectin production experiments: Surface transferring, cell seeding, and incubation were done in the same manner as in the adhesion experiment, with a cell density of 497 cells/mm^2, and incubation times of 1, 12, 24, 48, and 72 hour. At the end of each incubation, the surfaces were removed, washed with […] of PBS, and fixed in 1 ml of 4% paraformaldehyde (Sigma) in PBS for 15 minutes at 37° C., 5% CO2. After washing with PBS, surfaces were first labeled for secreted fibronectin: surfaces were subjected to a blocking solution (0.1% BSA in PBS) for 30 minutes, incubated for 1 hour with a primary antibody specific for secreted fibronectin (mouse anti-human fibronectin (P1H11) monoclonal antibody (Chemicon Int.) at a 1:500 dilution in blocking solution, and then for 45 minutes with a secondary antibody (IgG fluorescein (FITC) conjugated antibody; Chemicon Int.) at a 1:200 dilution in PBS. As a final step, cell membranes and nuclei were stained using the Image-iT™ LIVE Plasma Membrane and Nuclear Labeling Kit following the manufacturer's protocol for labeling fixed cells (Molecular Probes). After final washing, surfaces were mounted onto glass slides and stored at 4° C. protected from light. An inverted fluorescent microscope (Nikon Eclipse TE200 with Pixcell II LCM) was used for imaging. Fibronectin production was assessed visually, by comparing 10-20 fluorescence images from two samples for each substrate (two independent experiments performed at different days). Cell spreading was quantified from two samples per substrate (two independent experiments performed at different days) by measuring cell area with the NIH imaging software."}, "HUVECs [2]": {"system": "HUVECs", "assay": "HUVEC adhesion timed experiments on LB membranes (Example 2)", "type": "cell-based, human", "method": "Surface preparation: Each peptide-amphiphile was used to form homogenous LB membranes as in previous work (Kokkoli Langmuir 2004; 20:2397-2404), except that both the water and 15 mm mica disks used had been autoclaved for sterility. All depositions were done at a surface pressure between 41 and 47 mN/m, well below the collapse pressure and in the liquid-condensed or solid phase. Approximately 90 minutes before cells were seeded on the LB films to begin cell adhesion experiments, mica surfaces were transferred into 1× phosphate buffered saline (PBS), with particular care taken to ensure films were not exposed to air. After 5-10 minutes of equilibration, surfaces were transferred into 24-well plates containing a supplemented MCDB-131 basal media (Sigma), as described in Example 1. Following surface transfer, 24-well plates were moved to a 37° C., 5% CO2 incubator for 45-60 minutes. As a control, 22 mm diameter human fibronectin-coated coverslips (BD Biosciences), referred to as FN, were put into 12-well plates, covered with 2 ml of the supplemented media, and also incubated for 45-60 minutes.\nCell culture: Human umbilical vein endothelial cells, HUVECs (Cambrex Corporation), were cultured as described previously (see Example 1). Only cells from passage 3 were used in all studies.\nCell adhesion experiments: Flasks of HUVECs with at least 90% confluency were washed with 1×PBS, trypsinized with 0.25% Trypsin-EDTA (Fisher Scientific), and neutralized with 2% fetal bovine serum in MCDB-131 basal media. The suspended cells from all flasks were placed in one 50 ml centrifuge tube and centrifuged at 1000 rpm for 5 minutes. The media was removed and the cell pellet was resuspended in the supplemented media described above. A hemocytometer was used to count the cells and then 497 cells/mm^2 were seeded onto both LB and FN surfaces. Surfaces were incubated with cells at 37° C., 5% CO2 for 1, 4, or 12 hours. Cell adhesion following these times was determined using the CyQuant cell proliferation assay kit (Molecular Probes), which measures the fluorescence of a cellular nucleic acid-binding dye using the SpectraMAX GeminiXS plate reader (Molecular Devices). Standard calibration curves were created within each experiment for both 12- and 24-well plates."}, "HUVECs [3]": {"system": "HUVECs", "assay": "Fibronectin production staining (Example 2)", "type": "cell-based, human", "conditions": "12 hours", "method": "Fibronectin production staining: Surface preparation, transfer, and cellular work were all done as described in the previous methods. Only surfaces incubated with cells for 12 hours were stained. The staining protocol, involving a primary antibody for secreted fibronectin (Chemicon), a FITC-conjugated secondary antibody (Chemicon), and the Image-iT LIVE plasma membrane and nuclear labeling kit (Molecular Probes), was done as previously described in Example 1. A single photon confocal microscope (Olympus FluoView FV1000) was used for imaging. Two slides per substrate were prepared each during 2 separate experiments and each slide was imaged 2-4 times. The final images chosen were all taken from one experiment for consistency, but were representative of the images obtained from both experiments."}}, "note": "Entries after “also recorded” stand apart in the source; their conditions may differ. Where no end group is shown, it is not given here. (C16)2 = not defined here"}
{"substance": "(C16)2-Glu-C2-KSSPHSRNSGSGSGSGSGRGDSP ({(C16)2-Glu-C2}-KSSPHSRNSGSGSGSGSGRGDSP; not fully specified; reading uncertain) [PR_b]", "values": [{"measurement": "reduction in cell adhesion compared to adhesion of non-blocked cells", "setting": "integrin α5β1; anti-α5β1 antibody 20 μg/ml, HUVECs 249 cells/mm^2", "result": "77.55±1.50", "unit": "%"}, {"measurement": "Integrin mediating HUVEC adhesion to the surface", "setting": "integrin α5β1; antibody blocking", "result": "α5β1-mediated; also recorded: specific for α5β1 integrins"}, {"measurement": "HUVEC spreading (cell area)", "setting": "HUVECs [1]; 1-24 hours", "result": "mostly spread"}, {"measurement": "HUVEC spreading, rank among surfaces", "setting": "HUVECs [1]; all times examined, 1-72 hours", "result": "spread the most"}, {"measurement": "HUVEC adhesion compared with FN, overall", "setting": "HUVECs [2]; 1, 4 and 12 hours", "result": "outperform the positive control fibronectin at all times; also recorded: better than FN at all times; also recorded: statistically better than both Pr_f and the control FN"}, {"measurement": "HUVEC adhesion compared with Pr_c", "setting": "HUVECs [2]; 1, 4 and 12 hours", "result": "significantly better than Pr_c at all times except 1 hour"}, {"measurement": "HUVEC adhesion compared with Pr_d", "setting": "HUVECs [2]; 1, 4 and 12 hours", "result": "better than Pr_d at all times except 4 hours"}, {"measurement": "HUVEC adhesion compared with Pr_f", "setting": "HUVECs [2]; 1, 4 and 12 hours", "result": "statistically better than both Pr_f and the control FN; also recorded: much better"}, {"measurement": "HUVEC adhesion level (description)", "setting": "HUVECs [2]; 1, 4 and 12 hours", "result": "excellent adhesion at all times; also recorded: highest level of adhesion"}, {"measurement": "HUVEC adhesion compared with Pr_e", "setting": "HUVECs [2]; 1 and 4 hours", "result": "no statistical difference"}, {"measurement": "HUVEC adhesion compared with Pr_e", "setting": "HUVECs [2]; 12 hours", "result": "outperforms Pr_e; also recorded: better than Pr_e"}, {"measurement": "Maintenance / decay of HUVEC adhesion over time", "setting": "HUVECs [2]; up to 12 hours", "result": "most consistent adhesion over 12 hours; also recorded: smallest amount of decay over 12 hours; also recorded: least drop-off between 4 and 12 hours; also recorded: least amount of decay"}, {"measurement": "Fibronectin (ECM) production by adhered HUVECs", "setting": "HUVECs [3]", "result": "good fibronectin production"}]}
